According to article PMC6627486, “Ipomoeassin F Binds Sec61α to Inhibit Protein Translocation” (Journal of the American Chemical Society, 2019):
Read-outs that look alike come from different tables or passages of the source.

Tests used:
Format in all cases: cell-based, human
[1] = system: CD62L expression in Jurkat T cells; test: CD62L expression by Jurkat T cells; conditions: 24 h treatment
Procedure: Jurkat E6.1 (ATCC TIB-152TM) T cells were cultured in RPMI GlutamaxTM (Life Technologies), supplemented with 10% heat-inactivated fetal calf serum (FCS) (Invitrogen) and penicillin/streptomycin (100 U/ml, 100 µg/ml). Cells were treated with Ipomoeassin F or mycolactone for 24 h, then pelleted and stained with FITC-conjugated anti-human CD62L (clone DREG-56 (BioLegend #304804) at 500 ng/ml) during 40 min at 4°C. Fluorescence signals were acquired on an Accuri CD (BD) and analyzed with the […]
FlowJo X software. […]

[2] = system: HEK S82P; test: Alamar Blue viability, HEK293 expressing Sec61α S82P; conditions: read-out: cell viability IC50
Procedure: (§1) AlamarBlue Cytotoxicity Assay […]
Compounds were diluted from a DMSO stock into culture medium as described above. Cells were treated for 96 h, then viability measured with AlamarBlue, detected using the conditions described but with a BMG Fluostar Optima Microplate Reader. The percentage of viability compared to the negative control (DMSO-treated cells) was determined. GraphPad Prism 6 software was used to make a plot of % viability versus sample […]
HCT116 and HEK293T. Viable cells were counted using an automated cell counter (BioRad TC20) before each experiment. Experiments were performed either in quadruplicate or duplicate sets. First 100µ l of HCT116 or HEK293T cells at a density of 25,000 cells/m l was seeded in black wall, clear bottom, 96-well plates (2500 cells/well) (Viewplate-96 Perkin Elmer). HEK293 FRT Trex cells were seeded in complete medium supplemented to 1 μg/ml Doxycycline to induce expression of Sec61a constructs. Cells were then incubated at 37 °C and 5% CO2 for 24 h. The compounds were dissolved in DMSO to make drug stocks (10 mM). […] Emission of each well at 620 nm was detected by a microplate reader (Perkin Elmer EnSpire) at excitation 580 nm. The percentage of viability compared to the negative control (DMSO -treated cells) was determined. […]

[3] = system: HEK T86M; test: Alamar Blue viability, HEK293 expressing Sec61α T86M; conditions: read-out: cell viability IC50
Procedure: as §1
HCT116 and HEK293T. Viable cells were counted using an automated cell counter (BioRad TC20) before each experiment. Experiments were performed either in quadruplicate or duplicate sets. First 100µ l of HCT116 or HEK293T cells at a density of 25,000 cells/m l was seeded in black wall, clear bottom, 96-well plates (2500 cells/well) (Viewplate-96 Perkin Elmer). HEK293 FRT Trex cells were seeded in complete medium supplemented to 1 μg/ml Doxycycline to induce expression of Sec61a constructs. Cells were then incubated at 37 °C and 5% CO2 for 24 h. The compounds were dissolved in DMSO to make drug stocks (10 mM). The stock solutions were diluted with the complete DMEM or McCoy’s 5A culture media supplemented with DMSO to make a series of gradient fresh working solutions at equal DMSO percentage immediately prior to each test. Subsequently, the cells were treated with 25 μl of the freshly made gradient in a total volume of 125 μl/well for 72 h. After that, the media were supplemented with 10% of AlamarBlue (resazurin) stock solution. The plate was then incubated at 37 °C and 5% CO2 for another 4 h. Emission of each well at 620 nm was detected by a microplate reader (Perkin Elmer EnSpire) at excitation 580 nm. The percentage of viability compared to the negative control (DMSO -treated cells) was determined. […]

[4] = system: HepG2 cells; test: Pulse-chase analysis of protein secretion in HepG2 cells; conditions: for secretory proteins in cell media: HepG2, 100 nM Ipom-F or 42 nM mycolactone 13.5 h, 100 nM bortezomib 2 h
Procedure: Pulse‐Chase Analysis of Protein Secretion in HepG2 Cells
The secretion assay was performed using a pulse–chase approach as described previously.20 HepG2 cells were treated with DMSO, 100 nM compound 8, 100 nM Ipom-F or […] mycolactone for 13.5 h before initiating the experiment, whereas pre-treatment with bortezomib 100 nM (Stratech) or 2.5 μg/ml brefeldin A were performed for 2 h and 1 h, respectively. Cells were starved in Met‐ and Cys‐free DMEM (Invitrogen) for 20 min at 37°C. Labeling was initiated by addition of fresh starvation medium containing […] [35S]Met and [35S]Cys protein labeling mix (Perkin Elmer; specific activity >1,000 Ci/mmol) for 15 min. After washing with PBS, cells were incubated in serum‐free DMEM supplemented with excess unlabeled L‐Met and L‐Cys (2 mM final concentration) for 2 h. The compounds were included throughout the starvation, pulse and chase. Secreted proteins in the media were recovered by precipitation with 13% trichloroacetic acid, washed in acetone and dissolved in 2x sample buffer. Cells were solubilized with Triton X‐100 lysis buffer (20 mM Tris, pH 7.5, 150 mM NaCl, 1% TX-100, 1 mM EDTA, 1 mM EGTA) supplemented with protease inhibitor cocktail and phenylmethylsulfonyl fluoride. Equal amounts

[5] = system: MCF7; test: MTT cytotoxicity assay, MCF7; conditions: Homo sapiens, MCF7, 72 h, read-out: Cytotoxicity (IC50)
Procedure: Two human breast cancer cell lines (MDA-MB-231 and MCF7) and one human breast non-tumorigenic epithelial cell line (MCF-10A) were maintained in a DMEM high glucose culture medium supplemented with 10% fetal bovine serum (FBS) and 2 mM L-glutamine. The cells were grown in a humidified atmosphere of 5% CO2 and 95% air at 37 °C . The culture medi um w as changed every 2–4 days depending on cell density. Cell cultures were passaged once a week using 0.125% trypsin-EDTA to detach the cells from culture flasks/dishes.
The human colorectal cancer cell line HCT116 was maintained in McCoy’s 5A (modified) medium supplemented with 10% fetal bovine serum (FBS). The human embryonic kidney (HEK293T and HEK293 FRT TRex) cell line was maintained in DMEM high glucose culture medium supplemented with 10% fetal bovine serum (FBS).
HepG2 cells were cultured in DMEM supplemented with 10% fetal bovine serum and 2 mM L-glutamine at 37°C under 5% CO2.
Viable cells were counted with a hemocytometer immediately before each experiment. Experiments were done in triplicate. First, 100 μL of MCF7 cells at the density of 50,000 cells/mL were seeded in a 96-well plate (5,000 cells/well), which was incubated at 37 °C and 5% CO2 atmosphere for 24 h. The compounds were dissolved in DMSO (dimethyl sulfoxide) to make drug stocks (10 mM). The stock solutions were diluted with the complete DMEM high glucose culture medium to make a series of gradient fresh working solutions right before each test. Subsequently, the cells were treated with 100 μL of the freshly made gradient working solution in a total volume of 200 μL/well for 72 h. After that, the media were discarded and 200 μL of the fresh complete medium containing 10% of MTT stock solution (5 mg/mL) was added to each well. The plate was then incubated at 37 °C and 5% CO2 for 3 h. Next, 180 μL of the medium was discarded from each well , and 180 μL of DMSO was added to each well to dissol ve formazan crystals. Absorbance of formazan was detected by a microplate reader (BioTek Synergy H1) at 570 nm with 650 nm as the reference wavelength. The percentage of viability compared to the negative control (DMSO-treated cells) was determined . GraphPad Prism 6 software was used to make a plot of %

SMILES	IC50 [1] [nM]	IC50 ([2]; 72 h) [nM]	IC50 ([3]; 72 h) [nM]	secretory proteins in cell media [4]	IC50 ([5]; MTT) [nM]	IC50 [5] [nM]	IC50 ([1]; Homo sapiens) [nM]	IC50 ([2]; Homo sapiens, HEK293, 72 h) [nM]	IC50 ([3]; Homo sapiens, HEK293, 72 h) [nM]	global protein synthesis (total radiolabeled proteins) ([4]; HepG2, 100 nM, 13.5 h)
CC(=C\C=C\C(C)=C\[C@H](O)[C@@H](O)C[C@H](C)O)/C=C(C)/C=C/C(=O)O[C@H]1CCCC(=O)O[C@@H]([C@@H](C)C/C(C)=C/[C@@H](C)[C@H](O)C[C@@H](C)O)C/C=C(\C)C[C@@H]1C [mycolactone, reference compound]	6.3	1160	2470	substantial reduction						
C/C=C(\C)C(=O)O[C@H]1[C@H](OC(=O)/C=C/c2ccc(OCc3cn(CCOCCOCCOCCNC(=O)CCCC[C@@H]4SC[C@@H]5NC(=O)N[C@@H]54)nn3)cc2)[C@@H](O)[C@@H]2O[C@H]3[C@H](O[C@@H](CCCCC)CCCCCCC(=O)CCC(=O)OC[C@H]1O2)O[C@H](C)[C@H](OC(C)=O)[C@@H]3O [compound 5]					187					
C/C=C(\C)C(=O)O[C@@H]1[C@@H](O)[C@@H]2O[C@H]3[C@H](O[C@@H](CCCCC)CCCCCCC(=O)CCC(=O)OC[C@@H](O2)[C@H]1OC(=O)/C=C/c1ccccc1)O[C@H](C)[C@H](OC(C)=O)[C@@H]3O [ipomoeassin F]				substantial reduction		36.4	6.3	> 10000	13.5 ± 0.6	did not inhibit global protein synthesis
